Five molecules from article PMC8537445, “D-Peptide-Based Probe for CXCR4-Targeted Molecular Imaging and Radionuclide Therapy” (Pharmaceutics, 2021) can be followed below.

One data set deals with T1, murine CXCR4 (mCXCR4) (Mus musculus, UniProt P70658).
T1 construct: expressed in transfected cells; host or cells: U87 human glioblastoma cells, stably transfected
In words: Competition binding with fluorescent murine CXCL12^AF647 on U87.mCXCR4 cells (flow cytometry). Here is the method: Competition binding studies (IC50) were performed as described using either Jurkat cells and human CXCL12^AF647 (Almac, UK) as fluorescent ligand or U87.mCXCR4 cells and murine CXCL12^AF647 (Almac, UK) as fluorescent ligand. […] IC50-values were calculated using nonlinear regression (four parameters) in GraphPad Prism 9 (Graph Pad Software, San Diego, CA, USA) based on three biological replicates for each concentration tested.

A short description of data set [1]: Stability of the peptide in standard labeling conditions (LC-HRMS). The note with it: aqueous buffer pH 4, 1 h at 95 °C. It is filed as physicochemical. How it is done: First, we successfully confirmed previously reported IC50-values of DV1, DV3 and DV1-k-(DV3) for hCXCR4 in an in vitro binding assay (Table 1) and we assessed the stability of the bivalent peptide DV1-k-(DV3) in standard labeling conditions (aqueous buffer pH 4, 1 h at 95 °C).

Data set [2] deals with T2, hCXCR4-expressing U87 cells (U87.hCXCR4) (Homo sapiens, UniProt P61073).
T2 construct: expressed in transfected cells; host or cells: U87 human glioblastoma cells, stably transfected
The data set is described as follows: Binding and internalization assay on U87.hCXCR4 cells. It is filed as cell-based. The note with it: AMD3100 100 µM. How it is done:
Cellular uptake and internalization of [^18F]AlF-NOTA-DV1-k-(DV3), [^68Ga]Ga-DOTA-DV1-k-(DV3) and [^177Lu]Lu-DOTA-DV1-k-(DV3) (11, 17 and 7 nM respectively) into U87.hCXCR4 cells (2.5 × 10^5 cells) were investigated and compared with [^68Ga]PentixaFor (6 nM) as control. […] After incubation, the supernatant was removed and combined with 3 mL of ice-cold PBS used for rinsing the cells (unbound fraction). Subsequently, cells were incubated twice with 50 mM Glycine-HCl pH 2.8 for 5 min at room temperature, followed by one washing step with ice-cold PBS (membrane-bound fraction). Then, cells were lysed using 350 µL of reagent A100 (Chemometec, Allerod, Denmark). Reagent B (Chemometec, Allerod, Denmark) was used for rinsing the wells and to quench the lysing of the cells. Quantification of the amount of bound and internalized activity was performed using an automated gamma counter. The number of cells per well was counted using an automated counting device (NucleoCounter® NC-100™, Chemometec, Allerod, Denmark). Results were expressed as percentage of applied radioactivity bound to 2.5 × 10^5 cells.

A further data set can be described thus: in vivo. The note with it: female, SCID (CB17.Cg-Prkdc<scid>Lyst<bg-J>/Crl), mouse, tumor, iv, total radioactivity.
Data set [3] in a line: Ex vivo biodistribution in wild-type mice. Conditions: mouse, total radioactivity, 75 min p.i., ex vivo gamma counting, mean ± SD. How it is done:
The in vivo pharmacokinetics of the selected radioligands were first evaluated in wild-type mice by performing a whole-body biodistribution study. […] Blood and major organs were collected in tared tubes and weighed. Quantification of radioactivity in blood, organs, and other body parts was performed using an automated gamma counter equipped with a 3-inch NaI(Tl) well crystal coupled to a multichannel analyzer, mounted in a sample changer (2480 Wizard^2, Perkin Elmer, Waltham, MA, USA). Counts were corrected for background radiation, physical decay and counter dead time. Results are presented as standardized uptake values (SUV; tissue activity concentration (MBq/g)/[injected dose (MBq)/body weight (g)]).

The nature of data set [4]: Stability in human serum (radioHPLC). The note with it: male, human serum (H4522 human male AB plasma), 5-fold dilution in human serum, 9 days at 37 °C, read-out: intact radioligand in human serum. The format is in vitro ADME. How it is done: Formulated solutions of [^18F]AlF-NOTA-DV1-k-(DV3) and [^68Ga]Ga-DOTA-DV1-k-(DV3) were evaluated by radioHPLC 5 h and 2 h after radiosynthesis, respectively. In addition, 5-fold dilutions in human serum (H4522 human male AB plasma, USA origin, sterile-filtered, Sigma Aldrich, Saint Louis, MO, USA) were incubated at 37 °C for 2 h and analyzed using radioHPLC.
A formulated solution of [^177Lu]Lu-DOTA-DV1-k-(DV3) was evaluated by radioHPLC after 9 days of storage at 4 °C. A 5-fold dilution of [^177Lu]Lu-DOTA-DV1-k-(DV3) in human serum (H4522 human male AB plasma, USA origin, sterile-filtered, Sigma Aldrich, Saint Louis, MO, USA) was incubated at 37 °C for 9 days and analyzed by radioHPLC.

The structures appear in SMILES notation. Where two headings read alike, the source gives them in different places. Positions of bridges follow the written chain, without caps; N, C: chain ends. Non-standard residues stand in square brackets, D forms with d. Residues, ends and D or L forms follow the SMILES beside them. Groups on a side chain read outwards from the residue. Chains are numbered I, II in the order given. *: point of attachment. DOTA = O=C(O)CN1CCN(CC(=O)O)CCN(CC(=O)*)CCN(CC(=O)O)CC1; 2Nal = N[C@@H](Cc1ccc2ccccc2c1)C(=O)O; dNMeOrn = CN[C@H](CCCN)C(=O)O; 4Amb = NCc1ccc(C(=O)O)cc1 Bounds are passed on as bounds.

T1 sequence (P70658 whole entry): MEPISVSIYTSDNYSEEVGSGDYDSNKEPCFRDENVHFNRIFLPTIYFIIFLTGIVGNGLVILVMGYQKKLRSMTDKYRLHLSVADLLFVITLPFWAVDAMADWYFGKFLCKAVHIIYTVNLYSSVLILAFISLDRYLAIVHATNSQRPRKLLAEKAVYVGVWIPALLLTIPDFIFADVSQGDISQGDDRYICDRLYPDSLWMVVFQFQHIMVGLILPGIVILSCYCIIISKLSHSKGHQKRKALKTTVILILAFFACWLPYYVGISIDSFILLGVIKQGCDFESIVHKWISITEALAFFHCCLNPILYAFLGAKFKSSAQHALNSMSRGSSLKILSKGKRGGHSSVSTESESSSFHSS
T2 sequence (P61073 whole entry): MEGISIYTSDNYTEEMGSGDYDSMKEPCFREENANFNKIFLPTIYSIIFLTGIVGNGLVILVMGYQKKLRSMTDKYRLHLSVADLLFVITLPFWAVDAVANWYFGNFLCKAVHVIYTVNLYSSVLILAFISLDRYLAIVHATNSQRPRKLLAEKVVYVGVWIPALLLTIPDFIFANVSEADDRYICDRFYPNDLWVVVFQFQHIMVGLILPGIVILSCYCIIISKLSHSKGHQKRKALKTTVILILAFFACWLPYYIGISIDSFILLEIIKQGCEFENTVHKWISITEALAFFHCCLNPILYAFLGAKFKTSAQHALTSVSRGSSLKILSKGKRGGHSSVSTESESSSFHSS
Experimental for in vivo: The subcutaneous tumor xenograft model was prepared using a published procedure [21]. Briefly, 1 × 10^6 U87.hCXCR4 cells mixed with Cultrex (1:1; Cultrex Basement Membrane Extract, R&D systems, Minneapolis, MN, USA) were implanted subcutaneously into the right shoulder of female 10-week-old SCID mice (CB17.Cg-PrkdcLyst<bg-J>/Crl; Charles River Laboratories, Sulzfeld, Germany). After an average of four weeks, the animals were used in biodistribution and PET/computed tomography (CT) imaging studies. Tumor volumes ranged from 150–574 mm^3 (measured by caliper, h × l × w), while the tumor mass-to-body weight ratio was 0.14–2.34%.
Dynamic PET images were acquired for 60 min immediately after intravenous injection using a beta-cube PET scanner (Molecubes, Gent, Belgium). The mice were kept under gas anesthesia during the entire procedure (2.5% isoflurane in O2 at 1 L/min flow rate), with temperature and respiration monitored throughout. […]
PET data were histogrammed into 14 frames (4 × 15 s, 4 × 1 min, 1 × 5 min, 5 × 10 min) and reconstructed into a 192 × 192 image matrix with 0.4 mm voxels using 30 iterations the native MLEM algorithm with corrections for randoms, scatter, attenuation and decay. […] Radiotracer uptake at 60 min, expressed as SUVmean, was the outcome measure.

Take `c1cc(CN2CCCNCCNCCCNCC2)ccc1CN1CCCNCCNCCCNCC1` [AMD3100]: the half-maximal inhibitory concentration (IC50) at murine CXCR4 (mCXCR4) (murine CXCL12^AF647 as fluorescent ligand, mean ± SD, n = 3, read-out: IC50 [nM] to mCXCR4) was 123 ± 17 nM.
For the molecule `CC(C)C[C@@H](N)C(=O)NCC(=O)N[C@H](C)C(=O)N[C@H](CO)C(=O)N[C@H](Cc1c[nH]c2ccccc12)C(=O)N[C@H](Cc1c[nH]cn1)C(=O)N[C@H](CCCNC(=N)N)C(=O)N1CCC[C@@H]1C(=O)N[C@H](CC(=O)O)C(=O)N[C@H](CCCCN)C(=O)NCCCC[C@@H](NC(=O)[C@H]1CCCN1C(=O)[C@@H](CC(C)C)NC(=O)[C@H]1CCCN1C(=O)[C@@H](CCCNC(=N)N)NC(=O)[C@@H](CCCCN)NC(=O)[C@@H](CCC(N)=O)NC(=O)[C@@H](Cc1ccc(O)cc1)NC(=O)CNC(=O)[C@@H](CC(C)C)NC(=O)[C@@H](CS)NC(=O)[C@@H](CS)NC(=O)[C@@H](CCCCN)NC(=O)[C@@H](CC(=O)O)NC(=O)[C@H]1CCCN1C(=O)[C@@H](CCCNC(=N)N)NC(=O)[C@@H](Cc1c[nH]cn1)NC(=O)[C@@H](Cc1c[nH]c2ccccc12)NC(=O)[C@@H](CO)NC(=O)[C@@H](C)NC(=O)CNC(=O)[C@H](N)CC(C)C)C(=O)O` [DV1-k-(DV3)] (I: H-[dL]G[dA][dS][dW][dH][dR][dP][dD][dK][dC][dC][dL]G[dY][dQ][dK][dR][dP][dL][dP][dK]-OH / II: H-[dL]G[dA][dS][dW][dH][dR][dP][dD][dK]; amide I:22-II:C), the “stability in standard labeling conditions” value in data set [1] is listed as “No degradation products were detected”.
Turning to `CN1C(=O)[C@@H](Cc2ccc(O)cc2)NC(=O)CNC(=O)[C@H](Cc2ccc3ccccc3c2)NC(=O)[C@H](CCCNC(=N)N)NC(=O)[C@H]1CCCNC(=O)c1ccc(CNC(=O)CN2CCN(CC(=O)O)CCN(CC(=O)O)CCN(CC(=O)O)CC2)cc1` [[^68Ga]PentixaFor, metal not drawn] (cyclo([dY][dNMeOrn]([4Amb-DOTA])R[2Nal]G)), the “blocking of cellular uptake by excess AMD3100” value in data set [2] is “completely blocked”. In addition, the SUV at 1 h in “in vivo” came out at 2.9 SUV. In addition, the SUV at 1.25 h was determined as 0.5 SUV in data set [3] (blood, + AMD3100 5 mg/kg, n: PentixaFor 1, 18F 2, 68Ga 4, 177Lu 3, read-out: blood uptake); 0.6 ± 0.1 SUV in data set [3] (blood, tracer alone, n: PentixaFor 3, 18F 5, 68Ga 4, 177Lu 3, read-out: blood uptake); 0.2 ± 0.01 SUV in data set [3] (bone (femur harboring bone marrow), tracer alone, n: PentixaFor 3, 18F 5, 68Ga 4, 177Lu 3, read-out: bone uptake (femur harboring bone marrow)); 0.02 SUV in data set [3] (brain, + AMD3100 5 mg/kg, n: PentixaFor 1, 18F 2, 68Ga 4, 177Lu 3, read-out: brain uptake); 0.03 ± 0.01 SUV in data set [3] (brain, tracer alone, n: PentixaFor 3, 18F 5, 68Ga 4, 177Lu 3, read-out: brain uptake); 0.3 SUV in data set [3] (heart, + AMD3100 5 mg/kg, n: PentixaFor 1, 18F 2, 68Ga 4, 177Lu 3, read-out: heart uptake). The SUV at 1.25 h is 0.3 ± 0.02 SUV in data set [3] (heart, tracer alone, n: PentixaFor 3, 18F 5, 68Ga 4, 177Lu 3, read-out: heart uptake); 1.9 ± 1.1 SUV in data set [3] (kidneys, tracer alone, n: PentixaFor 3, 18F 5, 68Ga 4, 177Lu 3, read-out: kidneys uptake); 0.5 SUV in data set [3] (liver, + AMD3100 5 mg/kg, n: PentixaFor 1, 18F 2, 68Ga 4, 177Lu 3, read-out: liver uptake); 0.6 ± 0.1 SUV in data set [3] (liver, tracer alone, n: PentixaFor 3, 18F 5, 68Ga 4, 177Lu 3, read-out: liver uptake); 0.7 SUV in data set [3] (lungs, + AMD3100 5 mg/kg, n: PentixaFor 1, 18F 2, 68Ga 4, 177Lu 3, read-out: lungs uptake); 0.7 ± 0.1 SUV in data set [3] (lungs, tracer alone, n: PentixaFor 3, 18F 5, 68Ga 4, 177Lu 3, read-out: lungs uptake). Besides, the SUV at 1.25 h in data set [3] (muscle, + AMD3100 5 mg/kg, n: PentixaFor 1, 18F 2, 68Ga 4, 177Lu 3, read-out: muscle uptake) is 0.2 SUV; in data set [3] (muscle, tracer alone, n: PentixaFor 3, 18F 5, 68Ga 4, 177Lu 3, read-out: muscle uptake), 0.2 ± 0.03 SUV; in data set [3] (pancreas, + AMD3100 5 mg/kg, n: PentixaFor 1, 18F 2, 68Ga 4, 177Lu 3, read-out: pancreas uptake), 0.3 SUV; in data set [3] (pancreas, tracer alone, n: PentixaFor 3, 18F 5, 68Ga 4, 177Lu 3, read-out: pancreas uptake) it was 0.3 ± 0.1 SUV; in data set [3] (spleen, + AMD3100 5 mg/kg, n: PentixaFor 1, 18F 2, 68Ga 4, 177Lu 3, read-out: spleen uptake), 0.3 SUV; in data set [3] (spleen, tracer alone, n: PentixaFor 3, 18F 5, 68Ga 4, 177Lu 3, read-out: spleen uptake), 0.3 ± 0.02 SUV.
Regarding `CC(C)C[C@@H](N)C(=O)NCC(=O)N[C@H](C)C(=O)N[C@H](CO)C(=O)N[C@H](Cc1c[nH]c2ccccc12)C(=O)N[C@H](Cc1c[nH]cn1)C(=O)N[C@H](CCCNC(=N)N)C(=O)N1CCC[C@@H]1C(=O)N[C@H](CC(=O)O)C(=O)N[C@H](CCCCNC(=O)CN1CCN(CC(=O)O)CCN(CC(=O)O)CCN(CC(=O)O)CC1)C(=O)NCCCC[C@@H](NC(=O)[C@H]1CCCN1C(=O)[C@@H](CC(C)C)NC(=O)[C@H]1CCCN1C(=O)[C@@H](CCCNC(=N)N)NC(=O)[C@@H](CCCCN)NC(=O)[C@@H](CCC(N)=O)NC(=O)[C@@H](Cc1ccc(O)cc1)NC(=O)CNC(=O)[C@@H](CC(C)C)NC(=O)[C@@H](CS)NC(=O)[C@@H](CS)NC(=O)[C@@H](CCCCN)NC(=O)[C@@H](CC(=O)O)NC(=O)[C@H]1CCCN1C(=O)[C@@H](CCCNC(=N)N)NC(=O)[C@@H](Cc1c[nH]cn1)NC(=O)[C@@H](Cc1c[nH]c2ccccc12)NC(=O)[C@@H](CO)NC(=O)[C@@H](C)NC(=O)CNC(=O)[C@H](N)CC(C)C)C(=O)O` [[^177Lu]Lu-DOTA-DV1-k-(DV3), metal not drawn] (I: H-[dL]G[dA][dS][dW][dH][dR][dP][dD][dK][dC][dC][dL]G[dY][dQ][dK][dR][dP][dL][dP][dK]-OH / II: H-[dL]G[dA][dS][dW][dH][dR][dP][dD][dK](DOTA); amide I:22-II:C), in data set [4], the remaining at 216 h is > 98%.
Take `CN1C(=O)[C@@H](Cc2ccc(O)cc2)NC(=O)CNC(=O)[C@H](Cc2ccc3ccccc3c2)NC(=O)[C@H](CCCNC(=N)N)NC(=O)[C@H]1CCCNC(=O)c1ccc(CNC(=O)CN2CCN(CC(=O)O)CCN(CC(=O)O)CCN(CC(=O)O)CC2)cc1` [[^natGa]PentixaFor, metal not drawn] (cyclo([dY][dNMeOrn]([4Amb-DOTA])R[2Nal]G)): the IC50 at murine CXCR4 (mCXCR4) (read-out: IC50 [nM] to mCXCR4, murine CXCL12^AF647 as fluorescent ligand, mean ± SD, n = 3) was > 1000 nM.

What is called IC50 is the concentration needed to halve the response being measured.
